The target of one assay is α4β7 integrin (Homo sapiens (Human), UniProt P13612+P26010). Description: Integrin Adhesion Assay: Protocol 4 (MAdCAM-coated plate, RPMI-8866 cells with stable LOF mutation of the ITGB1 gene). The format is cell-based. The following applies: Protocol 4; RPMI-8866 cells with LOF mutation of ITGB1, MAdCAM; read-out: Mean IC50 α4β7 KO. In short, it runs like this: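 RPMI-8866 cells with CRISPR/Cas9 knockout of ITGB1 (2×10^6/mL) were added to MAdCAM-coated wells with compound (1% DMSO) in HEPES/NaCl buffer with 1 mM MnCl2, 0.1 mM CaCl2 and 1% BSA, then incubated 1 h at 37 °C. After four washes, adherent cells were quantified by CellTiter-Glo luminescence. Percent inhibition versus DMSO and control compound was fitted to 4-parameter curves.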
Chain of α4β7 integrin (P13612 34-1032): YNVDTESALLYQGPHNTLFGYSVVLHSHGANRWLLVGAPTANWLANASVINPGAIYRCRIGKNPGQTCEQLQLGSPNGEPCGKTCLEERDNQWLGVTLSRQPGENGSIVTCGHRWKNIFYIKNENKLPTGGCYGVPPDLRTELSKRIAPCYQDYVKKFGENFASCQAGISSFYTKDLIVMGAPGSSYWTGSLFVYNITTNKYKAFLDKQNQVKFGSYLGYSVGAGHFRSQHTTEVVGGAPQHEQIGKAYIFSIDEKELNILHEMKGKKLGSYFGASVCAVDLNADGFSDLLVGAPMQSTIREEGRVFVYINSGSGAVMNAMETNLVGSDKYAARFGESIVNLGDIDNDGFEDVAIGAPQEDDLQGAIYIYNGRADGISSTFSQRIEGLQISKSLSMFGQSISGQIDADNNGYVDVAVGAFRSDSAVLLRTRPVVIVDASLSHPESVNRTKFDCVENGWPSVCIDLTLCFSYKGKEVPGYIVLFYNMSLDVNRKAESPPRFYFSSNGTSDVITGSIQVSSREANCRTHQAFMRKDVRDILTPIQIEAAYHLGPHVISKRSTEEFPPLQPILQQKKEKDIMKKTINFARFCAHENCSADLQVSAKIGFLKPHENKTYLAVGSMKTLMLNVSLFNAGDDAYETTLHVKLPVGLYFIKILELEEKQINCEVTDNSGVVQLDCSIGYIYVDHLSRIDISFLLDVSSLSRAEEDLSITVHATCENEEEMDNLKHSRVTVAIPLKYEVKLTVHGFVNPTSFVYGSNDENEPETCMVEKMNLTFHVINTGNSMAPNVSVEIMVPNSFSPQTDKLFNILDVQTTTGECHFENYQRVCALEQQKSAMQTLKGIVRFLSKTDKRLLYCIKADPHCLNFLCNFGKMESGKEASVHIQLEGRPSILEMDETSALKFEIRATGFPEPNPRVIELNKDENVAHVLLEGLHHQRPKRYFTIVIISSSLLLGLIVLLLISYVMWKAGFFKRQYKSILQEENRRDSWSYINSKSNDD
Chain of α4β7 integrin (P26010 20-798): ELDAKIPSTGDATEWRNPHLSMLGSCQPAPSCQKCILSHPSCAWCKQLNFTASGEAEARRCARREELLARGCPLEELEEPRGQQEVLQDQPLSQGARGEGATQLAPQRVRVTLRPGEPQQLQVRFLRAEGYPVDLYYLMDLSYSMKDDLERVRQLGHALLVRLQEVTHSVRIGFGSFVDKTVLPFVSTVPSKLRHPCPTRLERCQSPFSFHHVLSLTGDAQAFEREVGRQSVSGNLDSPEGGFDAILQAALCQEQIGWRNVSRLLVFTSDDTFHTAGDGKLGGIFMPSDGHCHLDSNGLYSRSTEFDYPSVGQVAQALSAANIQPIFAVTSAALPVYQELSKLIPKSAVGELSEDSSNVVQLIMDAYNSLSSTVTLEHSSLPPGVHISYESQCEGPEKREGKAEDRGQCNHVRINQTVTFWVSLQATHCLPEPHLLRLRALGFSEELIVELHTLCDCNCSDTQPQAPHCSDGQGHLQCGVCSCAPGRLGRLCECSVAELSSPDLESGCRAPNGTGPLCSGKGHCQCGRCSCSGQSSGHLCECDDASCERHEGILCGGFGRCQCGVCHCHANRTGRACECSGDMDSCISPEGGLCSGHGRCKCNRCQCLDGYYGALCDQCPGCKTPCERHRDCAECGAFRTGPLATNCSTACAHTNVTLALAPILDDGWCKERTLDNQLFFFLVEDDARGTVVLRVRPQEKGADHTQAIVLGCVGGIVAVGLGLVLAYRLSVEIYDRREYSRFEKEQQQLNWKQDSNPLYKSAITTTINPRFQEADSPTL

The next assay addresses α4β1 integrin (Homo sapiens (Human), UniProt P05556+P13612). Nature of the assay: Integrin Adhesion Assay: Protocol 5 (VCAM-coated plate, RPMI-8866 cells with stable LOF mutation of the ITGB7 gene). The format is cell-based. The following applies: Protocol 5; RPMI-8866 cells with LOF mutation of ITGB7, VCAM; read-out: Mean IC50 α4β1 KO. In short, it runs like this: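 RPMI-8866 B cells with CRISPR/Cas9 ITGB7 knockout (clonal, verified by flow cytometry) adhered to VCAM-coated wells for 1 h at 37° C in HEPES/NaCl buffer with 1 mM MnCl2, 0.1 mM CaCl2, 1% BSA, 1% DMSO. Bound cells quantified by CellTiter-Glo luminescence after washing; % inhibition versus DMSO and control, 4-parameter fit.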

Chain of α4β1 integrin (P13612 34-1032): as the sequence (P13612 34-1032) above
Chain of α4β1 integrin (P05556 21-798): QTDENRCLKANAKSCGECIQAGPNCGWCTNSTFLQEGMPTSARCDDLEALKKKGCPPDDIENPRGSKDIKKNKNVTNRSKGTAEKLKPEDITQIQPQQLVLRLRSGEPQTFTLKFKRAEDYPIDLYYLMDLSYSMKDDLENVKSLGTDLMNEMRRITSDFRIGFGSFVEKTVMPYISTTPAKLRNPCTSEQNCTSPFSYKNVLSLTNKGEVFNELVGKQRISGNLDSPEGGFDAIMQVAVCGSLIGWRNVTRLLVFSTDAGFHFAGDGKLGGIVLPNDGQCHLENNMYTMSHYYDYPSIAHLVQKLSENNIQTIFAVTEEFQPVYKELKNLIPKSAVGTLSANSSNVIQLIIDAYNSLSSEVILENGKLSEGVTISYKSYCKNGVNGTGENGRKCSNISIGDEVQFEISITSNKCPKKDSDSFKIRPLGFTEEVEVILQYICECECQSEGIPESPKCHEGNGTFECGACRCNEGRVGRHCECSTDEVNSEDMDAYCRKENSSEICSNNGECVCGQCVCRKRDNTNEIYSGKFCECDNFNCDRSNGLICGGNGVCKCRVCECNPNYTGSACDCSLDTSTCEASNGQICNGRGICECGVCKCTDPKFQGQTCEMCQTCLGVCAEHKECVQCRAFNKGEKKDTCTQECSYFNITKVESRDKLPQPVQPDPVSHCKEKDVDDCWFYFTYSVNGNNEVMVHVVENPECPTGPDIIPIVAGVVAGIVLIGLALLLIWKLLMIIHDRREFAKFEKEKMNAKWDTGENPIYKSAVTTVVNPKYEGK

Usually IC50 stands for the midpoint of a concentration-inhibition curve. Consider `Cn1c(=O)c(-c2cccc3c(C[C@H](NC(=O)C4(C(F)(F)F)CCN(CC(F)F)CC4)C(=O)O)cccc23)c(C(F)(F)F)c2cc(CN3CCC(c4ccccc4)CC3)ccc21` [Compound 838], for which the IC50 was less than 0.01 µM at α4β7 integrin and 0.01 to 0.1 µM at α4β1 integrin.

`CC1CCN(Cc2ccc3c(c2)c(C(F)(F)F)c(-c2cccc4c(C[C@H](NC(=O)C5(C(F)(F)F)CCN(CC(F)(F)F)CC5)C(=O)O)cccc24)c(=O)n3C)CCC1(F)F` (some centres unmarked) [Compound 839]: the figures for the IC50 on α4β7 integrin and at α4β1 integrin were 0.01 to 0.1 µM and 0.1 to 1 µM, respectively.

`CC1CCN(Cc2ccc3c(c2)c(C(F)(F)F)c(-c2cccc4c(C[C@H](NC(=O)C5(C(F)(F)F)CCN(CC(F)F)CC5)C(=O)O)cccc24)c(=O)n3C)CCC1(F)F` (some centres unmarked) [Compound 840]: the IC50 is less than 0.01 µM at α4β7 integrin and 0.01 to 0.1 µM at α4β1 integrin.

With `COc1ccc(CN2CCC[C@@H](F)C2)c(OC)c1-c1cccc2c(C[C@H](NC(=O)C3(C(F)(F)F)CCN(CC(F)(F)F)CC3)C(=O)O)cccc12` [Compound 841], the values for the IC50 at α4β7 integrin and on α4β1 integrin were less than 0.01 µM and greater than 1 µM, respectively.

With `COc1ccc(CN2CCC[C@H](F)C2)c(OC)c1-c1cccc2c(C[C@H](NC(=O)C3(C(F)(F)F)CCN(CC(F)(F)F)CC3)C(=O)O)cccc12` [Compound 842], the IC50 was less than 0.01 µM at α4β7 integrin and 0.1 to 1 µM on α4β1 integrin.

Turning to `COc1cnc(CN2CCC(C)C(F)(F)CC2)cc1-c1cccc2c(C[C@H](NC(=O)C3(C(F)(F)F)CCN(CC(F)(F)F)CC3)C(=O)O)cccc12` (some centres unmarked) [Compound 843], the IC50 at α4β7 integrin is less than 0.01 µM; at α4β1 integrin, greater than 1 µM.

As for `COc1ccc(CN2CCC(C(F)(F)F)CC2)c(OC)c1-c1cccc2c(C[C@H](NC(=O)C3(C(F)(F)F)CCN(CC(F)(F)F)CC3)C(=O)O)cccc12` [Compound 844], the IC50 on α4β7 integrin is less than 0.01 µM; at α4β1 integrin it was 0.1 to 1 µM.

On to `COc1ccc(CN2CC3CCC(C2)O3)c(OC)c1-c1cccc2c(C[C@H](NC(=O)C3(C(F)(F)F)CCN(CC(F)(F)F)CC3)C(=O)O)cccc12` [Compound 845], for which the results for the IC50 at α4β7 integrin and at α4β1 integrin were 0.01 to 0.1 µM and greater than 1 µM, respectively.

Regarding `Cn1c(=O)c(-c2cccc3c(C[C@H](NC(=O)C4(C(F)(F)F)CCN(CC(F)(F)F)CC4)C(=O)O)cccc23)c(C(F)(F)F)c2ccc(CN3CCC(F)(F)CC3)cc21` [Compound 846], the IC50 on α4β7 integrin is 0.01 to 0.1 µM; at α4β1 integrin, greater than 1 µM.

As for `COc1cc(CN2CCC(F)(F)CC2)cc(C(F)(F)F)c1-c1cccc2c(C[C@H](NC(=O)C3(C(F)(F)F)CCN(CC(F)(F)F)CC3)C(=O)O)cccc12` [Compound 847], the results for the IC50 at α4β7 integrin and at α4β1 integrin were 0.01 to 0.1 µM and greater than 1 µM, respectively.

`COc1cc(CN2CCC[C@H](F)C2)cc(C(F)(F)F)c1-c1cccc2c(C[C@H](NC(=O)C3(C(F)(F)F)CCN(CC(F)(F)F)CC3)C(=O)O)cccc12` [Compound 848]: the half-maximal inhibitory concentration (IC50) is 0.01 to 0.1 µM on α4β7 integrin and greater than 1 µM on α4β1 integrin.

For the compound `COc1cc(CN2CCC[C@@H](F)C2)cc(C(F)(F)F)c1-c1cccc2c(C[C@H](NC(=O)C3(C(F)(F)F)CCN(CC(F)(F)F)CC3)C(=O)O)cccc12` [Compound 849], the IC50 on α4β7 integrin was 0.01 to 0.1 µM; on α4β1 integrin, greater than 1 µM.

On to `COc1ccc(CCN2CCC(F)(F)CC2)c(C(F)(F)F)c1-c1cccc2c(C[C@H](NC(=O)C3(C(F)(F)F)CCN(CC(F)(F)F)CC3)C(=O)O)cccc12` [Compound 850], for which the IC50 at α4β7 integrin lay in the range of 0.01 to 0.1 µM; at α4β1 integrin, 0.1 to 1 µM.

Regarding `COc1cc(CN2CCC(F)CC2)cc(OC)c1-c1cccc2c(C[C@H](NC(=O)C3(C(F)(F)F)CCN(CC(F)(F)F)CC3)C(=O)O)cccc12` [Compound 851], the 50% inhibitory concentration (IC50) was less than 0.01 µM at α4β7 integrin and 0.1 to 1 µM on α4β1 integrin.

`O=C(O)[C@H](Cc1cccc2c(-c3ncc(CN4CCC[C@H](F)C4)c4ccccc34)cccc12)NC(=O)C1(C(F)(F)F)CCN(CC(F)(F)F)CC1` [Compound 852]: the IC50 on α4β7 integrin was 0.01 to 0.1 µM; at α4β1 integrin, greater than 1 µM.

Take `O=C(O)[C@H](Cc1cccc2c(-c3ncc(CN4CCC(F)(F)CC4)c4ccccc34)cccc12)NC(=O)C1(C(F)(F)F)CCN(CC(F)(F)F)CC1` [Compound 853]: the IC50 is 0.01 to 0.1 µM on α4β7 integrin and greater than 1 µM on α4β1 integrin.

The values are drawn from patent publication US20250313535A1, “ALPHA 4 BETA 7 INTEGRIN MODULATORS AND USES THEREOF” (DICE MOLECULES SV, INC., priority 2022, published 2025).
